Test results from US11439641B2, “Pyrimidine JAK inhibitors for the treatment of skin diseases” (THERAVANCE BIOPHARMA R&D IP, LLC, priority 2019, dated 2022).
Values after ≈ are worked out from the molar mass of the structure shown.

Legend:
JAK1 = JAK1 (Homo sapiens (Human), UniProt P23458); experiment: Biochemical JAK and Tyk2 Kinase Assays (LanthaScreen), JAK1; details: 25 μM ATP (Km), pIC50 converted to pKi by Cheng-Prusoff
Caco-2 cell monolayer = experiment: Caco-2 Permeation Assay; format: in vitro ADME; details: Papp, 5 μM compound; for Cacoverap Kp 10^−6 cm/sec: A→B in the presence of 25 μM verapamil (P-gp inhibitor); for Caco Kp 10^−6 cm/sec: apical to basal (A→B)
Procedure: Assay 3: Caco-2 Permeation Assay
The Caco 2 permeability assay was used as a surrogate for assessment of skin permeability. This assay measures the in vitro permeability across a monolayer of Caco-2 cells, which morphologically and functionally resemble the enterocytes of the small intestine.
CacoReady 24-well transwell plates were obtained from ADMEcell (Alameda, Calif.). The compounds were evaluated at a concentration of 5 μM from 10 mM DMSO stock solutions in duplicate (n=2). Transport in the apical to basal (A→B) direction was determined in Caco 2 cell monolayers. From these values the apparent permeability (Papp) was calculated. To inform on the potential of the compound to be a P-gp substrate, the transport of the compound across the Caco-2 cell monolayer was also determined in the presence of 25 μM of the known P-gp inhibitor verapamil (Yusa and Tsuruo et al., Cancer Research, vol. 49, no. 18, 1989, pp. 5002-06).
Caco-2 culture media consisted of standard filtered DMEM, FCS 10%, L-Glutamine 1%, and PenStrep 1%. The experiment was conducted at 37° C. and in a CO2 (5%) incubator. The basal assay plate was prepared by adding 750 pt of transport buffer to A→B wells. A CacoReady™ plate was prepared by removing the Caco-2 media from the apical wells and replacing with fresh transport media (200 pt repeated for a total of 3 washes). Blank media (200 μL) was then replaced with diluted compound. To begin the incubation, the basal plate was removed from the incubator and the apical section was added on top of it. Samples were collected from the apical and basal compartments for time zero (t0). Samples were collected again after 120 minutes (t120) from the apical and basal compartments. All samples were diluted and prepared for bioanalysis by LC-MS/MS. The permeability coefficients (Papp, mean A to B) and (Papp, mean A to B+Verapamil) in cm/sec were calculated as dQ (flux)/(dt×Area×concentration).
In this assay, a compound with a Papp value of more than about 12×10−6 cm/sec is considered to have high permeability.

Tyk2 = Tyk2 (Homo sapiens (Human), UniProt P29597); experiment: Biochemical JAK and Tyk2 Kinase Assays (LanthaScreen), Tyk2; details: 10 μM ATP (Km), pIC50 converted to pKi by Cheng-Prusoff; for Ki: read-out: Tyk 2 (pKi) (converted)
Procedure: (§1) Assay 1: Biochemical JAK and Tyk2 Kinase Assays
(§2) A panel of four LanthaScreen JAK biochemical assays (JAK1, 2, 3 and Tyk2) were carried in a common kinase reaction buffer (50 mM HEPES, pH 7.5, 0.01% Brij-35, 10 mM MgCl2, and 1 mM EGTA). Recombinant GST-tagged JAK enzymes and a GFP-tagged STAT1 peptide substrate were obtained from Life Technologies.
(§3) Serially or discretely diluted compounds were pre-incubated with each of the four JAK enzymes and the substrate in white 384-well microplates (Corning) at ambient temperature for 1 h. ATP was subsequently added to initiate the kinase reactions in 10 μL total volume, with 1% DMSO. The final enzyme concentrations for JAK1, 2, 3 and Tyk2 are 4.2 nM, 0.1 nM, 1 nM, and 0.25 nM respectively; the corresponding Km ATP concentrations used are 25 μM, 3 μM, 1.6 μM, and 10 μM; while the substrate concentration is 200 nM for all four assays. Kinase reactions were allowed to proceed for 1 hour at ambient temperature before a 10 μL preparation of EDTA (10 mM final concentration) and Tb-anti-pSTAT1 (pTyr701) antibody (Life Technologies, 2 nM final concentration) in TR-FRET dilution buffer (Life Technologies) was added. The plates were allowed to incubate at ambient temperature for 1 h before being read on the EnVision reader (Perkin Elmer). Emission ratio signals (520 nm/495 nm) were recorded and utilized to calculate the percent inhibition values based on DMSO and background controls.
(§4) For dose-response analysis, percent inhibition data were plotted vs. compound concentrations, and IC50 values were determined from a 4-parameter robust fit model with the Prism software (GraphPad Software). Results were expressed as pIC50 (negative logarithm of IC50) and subsequently converted to pKi (negative logarithm of dissociation constant, Ki) using the Cheng-Prusoff equation.

JAK2 = JAK2 (Homo sapiens (Human), UniProt O60674); experiment: Biochemical JAK and Tyk2 Kinase Assays (LanthaScreen), JAK2; details: 3 μM ATP (Km); pIC50 converted to pKi by Cheng-Prusoff
Procedure: as §1, §2, §3, §4

[1] = system: IL-2 stimulated pSTAT5 in Tall-1 T cells; experiment: Inhibition of IL-2 Stimulated pSTAT5 in Tall-1 T Cells; format: cell-based; details: Tall-1 human T cell line, IL-2 300 ng/mL, AlphaLisa; for IC50: read-out: Tall-1 IL2 pSTAT5 (pIC50) (converted)
Procedure, shortened: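 Cells preincubated with compound 1 hour at 37° C, then stimulated with IL-2 (final 300 ng/mL) for 30 minutes. After lysis, pSTAT5 (Tyr694/699) read by AlphaLISA luminescence. IC50 from inhibition curves, reported as pIC50 (mean±SD).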

JAK3 = JAK3 (Homo sapiens (Human), UniProt P52333); experiment: Biochemical JAK and Tyk2 Kinase Assays (LanthaScreen), JAK3; details: 1.6 μM ATP (Km), pIC50 converted to pKi by Cheng-Prusoff; for Ki: read-out: JAK 3 (pKi) (converted)
physchem = details: thermodynamic from solid
Aqueous Solubility Assay = details: PBS buffer pH 7.4; maximum upper limit 1,000 μM
[2] = Solubility Assay in Organic Excipients; details: maximum upper limit 20,000 μM; for Solubility in MCT (mg/mL): medium chain triglycerides (MCT)
[3] = oil or lipid, Solubility in MCT (mg/mL)
[4] = organic solvent or mixture, Solubility in Diisopropyl adipate (mg/mL)
[5] = organic solvent or mixture, Solubility in PEG400 (mg/mL)
[6] = organic solvent or mixture, Solubility in Propylene glycol (mg/mL)

Sequence of JAK2 (O60674 whole entry): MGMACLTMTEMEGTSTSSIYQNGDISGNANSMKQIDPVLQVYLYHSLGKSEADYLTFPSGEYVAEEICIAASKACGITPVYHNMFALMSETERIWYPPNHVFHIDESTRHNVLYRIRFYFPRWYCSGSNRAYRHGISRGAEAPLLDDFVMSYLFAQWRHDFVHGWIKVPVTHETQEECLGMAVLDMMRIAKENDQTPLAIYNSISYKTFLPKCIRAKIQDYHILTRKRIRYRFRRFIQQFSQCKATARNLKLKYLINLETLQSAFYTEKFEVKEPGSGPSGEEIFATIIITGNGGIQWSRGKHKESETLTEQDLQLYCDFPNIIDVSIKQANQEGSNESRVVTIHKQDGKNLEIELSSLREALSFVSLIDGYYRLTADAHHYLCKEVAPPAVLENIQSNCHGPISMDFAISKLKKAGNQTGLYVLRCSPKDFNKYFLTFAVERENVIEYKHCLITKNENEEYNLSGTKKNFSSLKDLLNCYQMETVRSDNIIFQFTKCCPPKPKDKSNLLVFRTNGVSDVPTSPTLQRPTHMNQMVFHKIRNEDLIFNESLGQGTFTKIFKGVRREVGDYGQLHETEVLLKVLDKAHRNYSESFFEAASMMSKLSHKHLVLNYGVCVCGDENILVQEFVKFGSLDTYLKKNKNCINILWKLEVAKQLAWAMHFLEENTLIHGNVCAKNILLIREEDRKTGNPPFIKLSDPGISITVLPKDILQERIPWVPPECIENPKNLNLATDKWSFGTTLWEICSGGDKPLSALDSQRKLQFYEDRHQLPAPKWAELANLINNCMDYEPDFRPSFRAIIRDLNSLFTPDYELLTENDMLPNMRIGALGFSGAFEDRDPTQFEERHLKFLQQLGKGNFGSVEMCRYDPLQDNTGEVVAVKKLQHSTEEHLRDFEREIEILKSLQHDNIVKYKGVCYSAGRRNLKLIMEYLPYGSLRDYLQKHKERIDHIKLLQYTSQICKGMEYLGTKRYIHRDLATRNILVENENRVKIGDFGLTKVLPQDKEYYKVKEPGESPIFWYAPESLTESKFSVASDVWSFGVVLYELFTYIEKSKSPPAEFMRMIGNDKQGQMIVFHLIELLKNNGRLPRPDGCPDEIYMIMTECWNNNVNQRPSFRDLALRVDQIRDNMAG
Sequence of JAK3 (P52333 whole entry): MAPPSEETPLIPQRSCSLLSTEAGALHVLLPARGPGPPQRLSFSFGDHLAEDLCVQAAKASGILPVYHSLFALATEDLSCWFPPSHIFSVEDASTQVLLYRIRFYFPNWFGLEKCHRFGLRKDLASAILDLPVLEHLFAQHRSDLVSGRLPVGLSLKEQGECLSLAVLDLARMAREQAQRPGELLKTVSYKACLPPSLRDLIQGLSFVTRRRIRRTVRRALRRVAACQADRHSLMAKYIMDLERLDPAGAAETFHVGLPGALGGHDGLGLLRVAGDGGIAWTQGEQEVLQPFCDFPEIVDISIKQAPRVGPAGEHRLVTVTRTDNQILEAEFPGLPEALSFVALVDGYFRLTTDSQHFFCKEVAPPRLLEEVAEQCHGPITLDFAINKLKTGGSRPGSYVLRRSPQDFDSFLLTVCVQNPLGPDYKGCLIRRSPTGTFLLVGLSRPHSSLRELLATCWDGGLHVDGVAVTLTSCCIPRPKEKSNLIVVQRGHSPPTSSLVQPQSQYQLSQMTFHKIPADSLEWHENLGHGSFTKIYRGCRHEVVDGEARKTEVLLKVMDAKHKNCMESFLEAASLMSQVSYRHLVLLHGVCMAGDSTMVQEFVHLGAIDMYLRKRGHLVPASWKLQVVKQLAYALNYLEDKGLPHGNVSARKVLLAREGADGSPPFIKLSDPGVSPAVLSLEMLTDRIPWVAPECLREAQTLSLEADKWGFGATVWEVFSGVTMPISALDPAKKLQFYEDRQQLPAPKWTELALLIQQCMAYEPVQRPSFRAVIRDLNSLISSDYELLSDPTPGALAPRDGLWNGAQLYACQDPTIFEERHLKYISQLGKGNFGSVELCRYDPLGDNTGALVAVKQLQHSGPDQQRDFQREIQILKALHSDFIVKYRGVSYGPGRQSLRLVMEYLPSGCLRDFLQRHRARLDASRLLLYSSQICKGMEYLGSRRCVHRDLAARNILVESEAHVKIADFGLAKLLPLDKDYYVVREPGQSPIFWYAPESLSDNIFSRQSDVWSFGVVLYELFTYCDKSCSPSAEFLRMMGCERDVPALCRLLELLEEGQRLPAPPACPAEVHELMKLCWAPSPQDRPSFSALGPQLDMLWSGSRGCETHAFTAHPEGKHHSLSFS
Sequence of Tyk2 (P29597 whole entry): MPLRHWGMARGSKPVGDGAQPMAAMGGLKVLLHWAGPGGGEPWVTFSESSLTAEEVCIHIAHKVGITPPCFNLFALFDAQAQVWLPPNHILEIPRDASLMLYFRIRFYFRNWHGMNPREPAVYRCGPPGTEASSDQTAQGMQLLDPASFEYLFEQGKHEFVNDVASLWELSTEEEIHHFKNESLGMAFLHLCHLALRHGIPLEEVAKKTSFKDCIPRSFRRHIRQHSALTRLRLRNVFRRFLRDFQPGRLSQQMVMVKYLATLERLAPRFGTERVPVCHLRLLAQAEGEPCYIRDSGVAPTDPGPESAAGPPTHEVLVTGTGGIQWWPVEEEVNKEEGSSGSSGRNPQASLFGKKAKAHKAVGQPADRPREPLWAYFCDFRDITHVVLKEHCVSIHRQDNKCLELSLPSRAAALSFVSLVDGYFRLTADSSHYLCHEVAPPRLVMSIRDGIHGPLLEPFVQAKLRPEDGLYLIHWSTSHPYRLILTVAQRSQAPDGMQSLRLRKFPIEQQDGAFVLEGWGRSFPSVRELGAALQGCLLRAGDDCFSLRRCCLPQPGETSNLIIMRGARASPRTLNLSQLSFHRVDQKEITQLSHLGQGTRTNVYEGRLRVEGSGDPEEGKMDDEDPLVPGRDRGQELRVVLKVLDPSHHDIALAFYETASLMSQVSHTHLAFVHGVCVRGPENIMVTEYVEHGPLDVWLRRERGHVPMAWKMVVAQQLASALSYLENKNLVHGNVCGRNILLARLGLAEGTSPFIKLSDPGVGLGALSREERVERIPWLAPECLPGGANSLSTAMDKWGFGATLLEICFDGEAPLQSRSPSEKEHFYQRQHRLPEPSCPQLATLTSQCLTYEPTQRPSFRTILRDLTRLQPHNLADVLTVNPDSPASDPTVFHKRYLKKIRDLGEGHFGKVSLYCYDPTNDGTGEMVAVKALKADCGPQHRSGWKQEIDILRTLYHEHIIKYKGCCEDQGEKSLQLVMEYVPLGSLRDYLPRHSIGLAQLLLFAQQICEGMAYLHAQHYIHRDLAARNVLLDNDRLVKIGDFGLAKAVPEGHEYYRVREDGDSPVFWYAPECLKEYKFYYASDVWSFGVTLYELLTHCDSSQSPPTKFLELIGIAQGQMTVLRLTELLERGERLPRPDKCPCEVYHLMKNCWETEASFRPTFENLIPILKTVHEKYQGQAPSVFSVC
Sequence of JAK1 (P23458 whole entry): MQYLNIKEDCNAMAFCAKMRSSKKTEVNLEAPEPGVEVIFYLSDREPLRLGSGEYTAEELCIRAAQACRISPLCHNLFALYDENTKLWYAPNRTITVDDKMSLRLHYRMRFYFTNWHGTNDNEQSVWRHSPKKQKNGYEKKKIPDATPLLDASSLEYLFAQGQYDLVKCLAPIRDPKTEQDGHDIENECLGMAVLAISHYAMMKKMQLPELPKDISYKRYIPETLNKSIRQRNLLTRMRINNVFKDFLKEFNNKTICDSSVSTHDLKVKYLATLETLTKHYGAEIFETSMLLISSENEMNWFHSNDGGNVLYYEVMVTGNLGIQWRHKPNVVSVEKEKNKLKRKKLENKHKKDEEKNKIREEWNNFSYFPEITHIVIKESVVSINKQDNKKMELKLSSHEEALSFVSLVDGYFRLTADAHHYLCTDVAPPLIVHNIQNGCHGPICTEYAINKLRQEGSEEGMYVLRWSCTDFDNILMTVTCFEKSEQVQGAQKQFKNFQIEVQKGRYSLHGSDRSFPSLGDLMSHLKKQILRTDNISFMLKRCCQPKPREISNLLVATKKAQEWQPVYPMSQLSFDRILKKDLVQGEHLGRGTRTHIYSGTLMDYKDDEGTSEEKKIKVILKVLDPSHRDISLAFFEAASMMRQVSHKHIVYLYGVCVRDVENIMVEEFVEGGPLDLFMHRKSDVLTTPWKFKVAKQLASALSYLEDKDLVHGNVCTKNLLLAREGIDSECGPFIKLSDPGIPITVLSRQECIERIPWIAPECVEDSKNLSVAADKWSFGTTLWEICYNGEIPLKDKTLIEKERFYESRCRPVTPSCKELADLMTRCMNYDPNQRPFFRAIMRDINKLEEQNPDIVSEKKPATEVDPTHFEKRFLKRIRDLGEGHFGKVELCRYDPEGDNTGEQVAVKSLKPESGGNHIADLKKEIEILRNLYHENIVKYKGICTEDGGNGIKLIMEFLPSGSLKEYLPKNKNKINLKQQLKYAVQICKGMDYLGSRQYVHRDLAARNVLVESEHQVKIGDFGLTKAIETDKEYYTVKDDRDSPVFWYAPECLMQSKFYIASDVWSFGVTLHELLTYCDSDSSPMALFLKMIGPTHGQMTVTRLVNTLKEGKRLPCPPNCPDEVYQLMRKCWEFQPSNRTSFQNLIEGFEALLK

## COCCOC(=O)N1[C@@H]2CCC[C@H]1C[C@H](N(C)c1nc(Nc3cc(C)[nH]n3)cc(O[C@@H]3CCOC3)n1)C2 [Compound 22]
JAK1
  JAK 1 (pKi): A (A represents a pKi value ≥10 (Ki≤0.1 nM))
Caco-2 cell monolayer
  Cacoverap Kp 10^−6 cm/sec: B (B represents a value between 20×10^−6 and 35×10^−6 cm/sec)
  Caco Kp 10^−6 cm/sec: B (B represents a value between 15×10^−6 and 30×10^−6 cm/sec)
Tyk2
  Ki: 0.1 to 1 nM
JAK2
  JAK 2 (pKi): A (A represents a pKi value ≥10 (Ki≤0.1 nM))
[1]
  IC50: 10 to 31.6 nM
JAK3
  Ki: 0.1 to 1 nM
physchem; [3]
  solubility at 4 h: < 5000 µg/mL
physchem; [4]
  solubility at 4 h: > 10000 µg/mL
physchem; [5]
  solubility at 4 h: > 10000 µg/mL
physchem; [6]
  solubility at 4 h: > 10000 µg/mL

## COCCOC(=O)N1[C@@H]2CCC[C@H]1C[C@H](N(C)c1nc(Nc3cc(C)[nH]n3)cc(C3CCCO3)n1)C2 (stereo partly drawn) [Compound 13, 2-methoxyethyl (1R,3s,5S)-3-(methyl(4-((5-methyl-1H-pyrazol-3-yl)amino)-6-(tetrahydrofuran-2-yl)pyrimidin-2-yl)amino)-9-azabicyclo[3.3.1]nonane-9-carboxylate]
Aqueous Solubility Assay
  Solubility at PH 7.4 (μmol): C (C represents a value between 50 and 250)
JAK1
  JAK 1 (pKi): A (A represents a pKi value ≥10 (Ki≤0.1 nM))
Tyk2
  Tyk 2 (pKi): B (B represents a pKi value between 9 and 10 (Ki between 1 nM and 0.1 nM))
JAK2
  JAK 2 (pKi): A (A represents a pKi value ≥10 (Ki≤0.1 nM))
[2]
  Solubility in PEG400 (mg/mL): A (A represents a value above 10)
  Solubility in Diisopropyl adipate (mg/mL): A (A represents a value above 10)
  Solubility in MCT (mg/mL): B (B represents a value between 5 and 10)
  Solubility in Propylene glycol (mg/mL): A (A represents a value above 10)
[1]
  Tall-1 IL2 pSTAT5 (pIC50): B (B represents a pIC50 value between 7.5 (included) and 8.0)
JAK3
  JAK 3 (pKi): C (C represents a pKi value between 8 and 9 (Ki between 10 nM and 1 nM))

## Cc1cc(Nc2cc(C3CCCO3)nc(N(C)[C@@H]3C[C@H]4CCC[C@@H](C3)N4C(=O)OC3CCOCC3)n2)n[nH]1 (stereo partly drawn) [Compound 14, tetrahydro-2H-pyran-4-yl (1R,3s,5S)-3-(methyl(4-((5-methyl-1H-pyrazol-3-yl)amino)-6-(tetrahydrofuran-2-yl)pyrimidin-2-yl)amino)-9-azabicyclo[3.3.1]nonane-9-carboxylate]
Aqueous Solubility Assay
  Solubility at PH 7.4 (μmol): D (D represents a value between 10 and 50)
JAK1
  JAK 1 (pKi): A (A represents a pKi value ≥10 (Ki≤0.1 nM))
Caco-2 cell monolayer
  Cacoverap Kp 10^−6 cm/sec: B (B represents a value between 20×10^−6 and 35×10^−6 cm/sec)
  Caco Kp 10^−6 cm/sec: B (B represents a value between 15×10^−6 and 30×10^−6 cm/sec)
Tyk2
  Tyk 2 (pKi): B (B represents a pKi value between 9 and 10 (Ki between 1 nM and 0.1 nM))
JAK2
  JAK 2 (pKi): A (A represents a pKi value ≥10 (Ki≤0.1 nM))
[2]
  Solubility in PEG400 (mg/mL): A (A represents a value above 10)
  Solubility in Diisopropyl adipate (mg/mL): A (A represents a value above 10)
  Solubility in MCT (mg/mL): B (B represents a value between 5 and 10)
  Solubility in Propylene glycol (mg/mL): A (A represents a value above 10)
[1]
  Tall-1 IL2 pSTAT5 (pIC50): B (B represents a pIC50 value between 7.5 (included) and 8.0)
JAK3
  JAK 3 (pKi): C (C represents a pKi value between 8 and 9 (Ki between 10 nM and 1 nM))

## COC(=O)N1[C@@H]2CCC[C@H]1C[C@H](N(C)c1nc(Nc3cc(C)[nH]n3)cc(C3CCCO3)n1)C2 (stereo partly drawn) [Compound 11, methyl (1R,3s,5S)-3-(methyl(4-((5-methyl-1H-pyrazol-3-yl)amino)-6-(tetrahydrofuran-2-yl)pyrimidin-2-yl)amino)-9-azabicyclo[3.3.1]nonane-9-carboxylate]
Aqueous Solubility Assay
  Solubility at PH 7.4 (μmol): C (C represents a value between 50 and 250)
JAK1
  JAK 1 (pKi): A (A represents a pKi value ≥10 (Ki≤0.1 nM))
Caco-2 cell monolayer
  Cacoverap Kp 10^−6 cm/sec: B (B represents a value between 20×10^−6 and 35×10^−6 cm/sec)
  Caco Kp 10^−6 cm/sec: B (B represents a value between 15×10^−6 and 30×10^−6 cm/sec)
Tyk2
  Tyk 2 (pKi): B (B represents a pKi value between 9 and 10 (Ki between 1 nM and 0.1 nM))
JAK2
  JAK 2 (pKi): B (B represents a pKi value between 9 and 10 (Ki between 1 nM and 0.1 nM))
[2]
  Solubility in PEG400 (mg/mL): A (A represents a value above 10)
  Solubility in Diisopropyl adipate (mg/mL): A (A represents a value above 10)
  Solubility in MCT (mg/mL): B (B represents a value between 5 and 10)
  Solubility in Propylene glycol (mg/mL): A (A represents a value above 10)
[1]
  Tall-1 IL2 pSTAT5 (pIC50): A (A represents a pIC50 value ≥8.0)
JAK3
  JAK 3 (pKi): C (C represents a pKi value between 8 and 9 (Ki between 10 nM and 1 nM))

## Cc1cc(Nc2cc(O[C@@H]3CCOC3)nc(N(C)[C@@H]3C[C@H]4CCC[C@@H](C3)N4C(=O)OC3CCOCC3)n2)n[nH]1 [Compound 21]
JAK1
  JAK 1 (pKi): A (A represents a pKi value ≥10 (Ki≤0.1 nM))
Caco-2 cell monolayer
  Cacoverap Kp 10^−6 cm/sec: B (B represents a value between 20×10^−6 and 35×10^−6 cm/sec)
  Caco Kp 10^−6 cm/sec: B (B represents a value between 15×10^−6 and 30×10^−6 cm/sec)
Tyk2
  Ki: 0.1 to 1 nM
JAK2
  JAK 2 (pKi): A (A represents a pKi value ≥10 (Ki≤0.1 nM))
[1]
  IC50: 10 to 31.6 nM
JAK3
  Ki: 0.1 to 1 nM
physchem; [3]
  solubility at 4 h: 5000 to 10000 µg/mL (≈ 9.23 to 18.5 mM)
physchem; [4]
  solubility at 4 h: > 10000 µg/mL
physchem; [5]
  solubility at 4 h: > 10000 µg/mL
physchem; [6]
  solubility at 4 h: > 10000 µg/mL

## Cc1cc(Nc2cc(O[C@H]3CCOC3)nc(N(C)[C@@H]3C[C@H]4CCC[C@@H](C3)N4CC(=O)N3CCCC3)n2)n[nH]1 [Compound 31]
JAK1; read-out: JAK 1 (pKi) (converted)
  Ki: 0.1 to 1 nM
Caco-2 cell monolayer
  Cacoverap Kp 10^−6 cm/sec: C (C represents a value between 12×10^−6 and 20×10^−6 cm/sec)
  Caco Kp 10^−6 cm/sec: C (C represents a value below 15×10^−6 cm/sec)
Tyk2
  Ki: 0.1 to 1 nM
JAK2
  JAK 2 (pKi): A (A represents a pKi value ≥10 (Ki≤0.1 nM))
[1]
  IC50: ≤ 10 nM
JAK3
  Ki: 0.1 to 1 nM
physchem; [3]
  solubility at 4 h: < 5000 µg/mL
physchem; [4]
  solubility at 4 h: < 5000 µg/mL
physchem; [5]
  solubility at 4 h: < 5000 µg/mL
physchem; [6]
  solubility at 4 h: < 5000 µg/mL
